Data from patent US12286418B2, “Compounds and methods for treating or preventing bacterial infections” (priority 2019, dated 2025).
Where “and” joins values, the source holds several entries; their conditions need not be identical. Equal entries are not always repeated. Entries after “also recorded” stand apart in the source; their conditions may differ.

Experiments:
OXA-48 [1] = target: T1, OXA-48 (Klebsiella pneumoniae, UniProt Q6XEC0); assay: OXA-48 inhibition assay using nitrocefin as reporter; assay type: biochemical; set-up: His-tag (N, cleaved yes); made in house; host or cells: E. coli BL21(DE3), pET28a; conditions: for potency/activity against OXA-48 in words: purified OXA-48, compared with CDD-97 where a derivative
Method: Nitrocefin, a chromogenic β-lactam substrate, was used as a reporter in all inhibition assays with the various OXA enzymes and various compounds. Nitrocefin is not stable in aqueous solution long-term. For these assays, nitrocefin stocks were prepared in DMSO, stored at −20° C. and used within 2 weeks of dissolving. To avoid freeze-thawing, fresh stocks were always used. The Km of nitrocefin was determined prior to inhibition assays by performing steady state kinetics. Assays were performed using a DU800 spectrophotometer at room temperature in 50 mM HEPES pH 7.5, 15 mM NaHCO3, and 0.02% tween 20 buffer. Hydrolyzed nitrocefin was detected at 482 nm. For a single experiment, a series of at least 5 nitrocefin concentrations were tested against the given enzyme in duplicate and the initial velocities were measured and fit to the Michaelis-Menten equation. Experiments were repeated twice, and error reported is the standard error of the mean.
Compounds were tested for inhibition of a given OXA enzyme from hydrolyzing nitrocefin using a Tecan plate reader. […] A control with no compound was included in each run. For each compound concentration, the velocity of nitrocefin hydrolysis was determined at 482 nm and fit to the Morrison equation. […] The average Ki of separate experiments, each of which consisted of duplicate runs, is reported and error was quantified as the standard deviation.
The activity of these derivatives was assessed using inhibition assays with purified OXA-48. Compounds were tested for the ability to inhibit OXA-48 from hydrolyzing nitrocefin, a chromogenic β-lactam substrate routinely used in β-lactamase inhibition assays. Nitrocefin contains a conjugated ring system that is readily hydrolyzed and produces a visible color shift from yellow to red upon hydrolysis (O'Callaghan, et al., 1972, Antimicrob. Agents Chemother. 1:283-288). The rate of nitrocefin hydrolysis in the presence of a constant amount of OXA-48 and increasing concentrations of a given compound of interest was monitored at 482 nm. These rates were plotted against compound concentration to determine the inhibition constant (Ki) against OXA-48. […] SPR was performed using 6×-His-OXA-48 enzyme that was amine-coupled on a Ni-NTA Chip. Meropenem, which covalently binds and inhibits OXA-48, was used as a positive control.

OXA-48 [2] = target: T1, OXA-48; assay: Example 8 inhibition assay with nitrocefin (aromatic acids): OXA-48; assay type: biochemical; set-up: His-tag (N, cleaved yes); made in house; host or cells: E. coli BL21(DE3), pET28a
Method: (§1) For each of the OXA enzymes, the nitrocefin steady states were determined so nitrocefin could be used as a reporter in the inhibition assays. Nitrocefin (MilliporeSigma, Burlington, MA) was kept at −20° C. upon purchase and thawed at room temperature and diluted in DMSO for usage. DMSO stocks were aliquoted and kept at −20° C. for only up to 2 weeks after dissolving. To determine the steady state kinetic parameters for nitrocefin hydrolysis, reactions were monitored on a DU-800 spectrophotometer (Beckman Coulter, Brea, CA) at 25° C. Enzyme and substrate samples were diluted using 50 mM HEPES, pH 7.5, 15 mM NaHCO3, and 0.02% Tween-20. Hydrolyzed nitrocefin was tracked at 482 nm. For a single experiment, a series of at least 5 nitrocefin concentrations was tested against the given enzyme. Each substrate concentration was tested in duplicate and initial velocities were averaged (for a given concentration) and fit the Michaelis-Menten equation. The experiment was repeated for rigor. The Km values determined for each enzyme was used to determine the amount of nitrocefin to use in the inhibition assays.
The inhibition activity for compounds were assessed using inhibition assays with nitrocefin as the reporter. A constant concentration of nitrocefin and the given enzyme was used with increasing concentrations of the compound in question. […] The enzymes OXA-24, OXA-48 and OXA-58 were used in their corresponding inhibition experiments at a constant concentration of 0.2 nM, 0.2 nM and 0.1 nM respectively. Compounds were tested at up to 500-4000 μM depending on solubility and absorbance output. The initial velocity of nitrocefin hydrolysis was monitored using a Tecan M200 Infinite Pro plate reader (Tecan, Mannedorf, Switzerland). The velocities at various compound concentrations were fit to the Morrison Tight Binding equation to determine the Ki value for the given fragment with the given OXA enzyme. Ligand efficiency (LE) was calculated using a previously reported equation: LE=1.37 (pKi)/(# non-Hydrogen atoms). […]

OXA-58 = target: T2, OXA-58 (Acinetobacter baumannii, UniProt Q2TR58); assay: biochemical
T2 construct: His-tag (N, cleaved yes); made in house; host or cells: E. coli BL21 (DE3), pET28a
Method: as §1, with “Each substrate concentration was tested in duplicate and initial velocities were averaged (for a given concentration) and fit the Michaelis-Menten equation. The experiment was repeated for rigor.” left out
(§2) The inhibition activity for compounds were assessed using inhibition assays with nitrocefin as the reporter. […] Compounds were tested at up to 500-4000 μM depending on solubility and absorbance output. The initial velocity of nitrocefin hydrolysis was monitored using a Tecan M200 Infinite Pro plate reader (Tecan, Mannedorf, Switzerland). […] Ligand efficiency (LE) was calculated using a previously reported equation: LE=1.37 (pKi)/(# non-Hydrogen atoms). […]

OXA-24 = target: T3, OXA-24 (Acinetobacter baumannii, UniProt Q8RLA6); assay: Example 8 inhibition assay with nitrocefin (aromatic acids): OXA-24; assay type: biochemical
T3 construct: His-tag (N, cleaved yes); made in house; host or cells: E. coli BL21 (DE3), pET28a
Method: as §1, with “Each substrate concentration was tested in duplicate and initial velocities were averaged (for a given concentration) and fit the Michaelis-Menten equation. The experiment was repeated for rigor.” left out
as §2

OXA-48 [3] = target: T1, OXA-48; assay: Surface plasmon resonance binding to immobilized 6x-His-OXA-48; set-up: His-tag (N, cleaved yes); made in house; host or cells: E. coli BL21(DE3), pET28a; conditions: SPR, immobilized His-OXA-48, positive control
Method: 6×-His-OXA-48 was capture/amine-coupled on a Ni-NTA Chip at a density of ˜5000 RU. Running buffer was 10 mM HEPES pH 7.4, 150 NaCl, 50 mM NaHCO3, 0.005% Tween-20, 2% DMSO. Concentration gradients of each compound were created from 0-15 μM using OneStep Injections in at least triplicates for meropenem and CDD-97.
Synthon-derivatives were created, without DNA tags, based on high OXA-48 enrichment and minimal NTC enrichment. The activity of these derivatives was assessed using inhibition assays with purified OXA-48. Compounds were tested for the ability to inhibit OXA-48 from hydrolyzing nitrocefin, a chromogenic β-lactam substrate routinely used in β-lactamase inhibition assays. Nitrocefin contains a conjugated ring system that is readily hydrolyzed and produces a visible color shift from yellow to red upon hydrolysis (O'Callaghan, et al., 1972, Antimicrob. Agents Chemother. 1:283-288). The rate of nitrocefin hydrolysis in the presence of a constant amount of OXA-48 and increasing concentrations of a given compound of interest was monitored at 482 nm. These rates were plotted against compound concentration to determine the inhibition constant (Ki) against OXA-48. Compounds with promising activity were also assessed for binding using surface plasmon resonance (SPR). SPR was performed using 6×-His-OXA-48 enzyme that was amine-coupled on a Ni-NTA Chip. Meropenem, which covalently binds and inhibits OXA-48, was used as a positive control.

OXA-48 [4] = target: T1, OXA-48; conditions: non-β-lactam inhibitors; cited from earlier work
[5] = purified OXA-48, nitrocefin hydrolysis, Morrison fit

T1 sequence (Q6XEC0 23-265, looked up): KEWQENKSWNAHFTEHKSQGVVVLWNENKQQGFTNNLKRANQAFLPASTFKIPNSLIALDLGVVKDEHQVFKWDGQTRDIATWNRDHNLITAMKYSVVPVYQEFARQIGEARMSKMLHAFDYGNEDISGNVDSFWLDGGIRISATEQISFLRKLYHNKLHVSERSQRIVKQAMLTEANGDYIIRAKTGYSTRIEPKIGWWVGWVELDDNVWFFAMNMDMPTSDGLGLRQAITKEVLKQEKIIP
T2 sequence (Q2TR58 19-280): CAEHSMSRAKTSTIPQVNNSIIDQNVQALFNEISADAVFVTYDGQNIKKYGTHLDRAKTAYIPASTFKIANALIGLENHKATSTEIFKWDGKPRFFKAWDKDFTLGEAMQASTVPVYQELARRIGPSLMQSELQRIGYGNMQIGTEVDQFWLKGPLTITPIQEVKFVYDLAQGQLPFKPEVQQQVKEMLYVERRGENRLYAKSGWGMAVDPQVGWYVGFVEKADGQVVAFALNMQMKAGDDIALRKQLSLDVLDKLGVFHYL
T3 sequence (Q8RLA6 entry or part of it): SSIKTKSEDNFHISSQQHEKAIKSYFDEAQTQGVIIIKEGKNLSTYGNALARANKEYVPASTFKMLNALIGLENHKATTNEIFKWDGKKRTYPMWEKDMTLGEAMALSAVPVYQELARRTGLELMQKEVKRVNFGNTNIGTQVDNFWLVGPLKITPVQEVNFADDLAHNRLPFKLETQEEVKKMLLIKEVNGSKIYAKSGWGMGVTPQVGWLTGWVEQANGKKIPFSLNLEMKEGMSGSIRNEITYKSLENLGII

Question: What does the source list for `CCOc1ccccc1N1CCN(c2nc(N)nc(N3CCC(C(=O)O)CC3)n2)CC1` [CDD-616, 1-(4-amino-6-(4-(2-ethoxyphenyl)piperazin-1-yl)-1,3,5-triazin-2-yl)piperidine-4-carboxylic acid]?
Answer: potency/activity against OXA-48 in words (OXA-48 [1]): does not have a large effect on potency; also recorded: retain potency; also recorded: did not affect potency; Ki (OXA-48 [1]; [5]): 520 ± 10 nM

Question: With `CCOc1ccccc1N1CCN(c2ncnc(N3CCC(C(=O)O)C(N)C3)n2)CC1` (centres unmarked) [CDD-825] as the molecule, how does the Ki (OXA-48 [1]; [5]) read?
Answer: 17000 nM and 16900 nM

Question: And the “fold reduction in potency (OXA-48 Ki) compared to CDD-97” value (OXA-48 [1]; relative to CDD-97)?
Answer: approximately 30 fold

Question: Which Ki (OXA-48 [1]; purified OXA-48, nitrocefin) does the source give for `CCOc1ccccc1N1CCN(c2ncnc(N3CCC(S(=O)(=O)O)CC3)n2)CC1` [CDD-862, 1-(4-(4-(2-ethoxyphenyl)piperazin-1-yl)-1,3,5-triazin-2-yl)piperidine-4-sulfonic acid] here?
Answer: 260 nM

Question: And the Ki (OXA-48 [1]; [5])?
Answer: 270 ± 20 nM

Question: Which “potency/activity against OXA-48 in words” value (OXA-48 [1]) does the source give for `CCOc1ccccc1N1CCN(c2nc(NCCCCN)nc(N3CCC(C(=O)O)CC3)n2)CC1` [CDD-863] here?
Answer: does not have a large effect on potency

Question: What about the Ki (OXA-48 [1]; [5]) of the same molecule?
Answer: 450 nM

Question: For `CCOc1ccccc1N1CCN(c2nc(NCCN)nc(N3CCC(C(=O)O)CC3)n2)CC1` [CDD-864, 1-(4-((2-aminoethyl)amino)-6-(4-(2-ethoxyphenyl)piperazin-1-yl)-1,3,5-triazin-2-yl)piperidine-4-carboxylic acid], which Ki (OXA-48 [1]; [5]) is on record?
Answer: 600 nM

Question: For `CCOc1ccccc1CCCNc1ncnc(N2CCC(C(=O)O)CC2)n1` [CDD-899], which Ki (OXA-48 [1]; [5]) is on record?
Answer: 15000 nM

Question: With `O=C(O)c1ccccc1O` [Compound 1.1] as the molecule, how does the “inhibition activity against OXA-48 in words” value (OXA-48 [2]) read?
Answer: low millimolar activity

Question: And the Ki (OXA-58)?
Answer: 379000 ± 44000 nM

Question: And the “inhibition activity against OXA-24 in words” value (OXA-24)?
Answer: low millimolar activity

Question: With `O=C(O)c1ccc(-c2ccc(C(=O)O)cc2)cc1` [Compound 2.1] as the molecule, how does the “ligand efficiency (LE) for OXA-48 inhibition” value (OXA-48 [2]; LE=1.37 (pKi)/(# non-Hydrogen atoms)) read?
Answer: 0.36

Question: What about the Ki (OXA-48 [2]; OXA-48 0.2 nM, 25 μM nitrocefin) of the same molecule?
Answer: 17200 ± 1000 nM

Question: Which Kd (OXA-48 [3]) does the source give for `C[C@@H](O)[C@H]1C(=O)N2C(C(=O)O)=C(S[C@@H]3CN[C@H](C(=O)N(C)C)C3)[C@H](C)[C@H]12` [Meropenem, reference compound] here?
Answer: 423.5 ± 0.2 nM

Question: Which Ki (OXA-48 [1]; [5]) does the source give for `CCOc1ccccc1N1CCN(c2nc(NCCN)nc(N3CCC(C(=O)O)CC3)n2)CC1` [drawing 44] here?
Answer: 840 ± 30 nM

Question: For `CCOc1ccccc1N1CCN(c2ncnc(N3CCC(S(=O)(=O)O)CC3)n2)CC1` [drawing 46], which Ki (OXA-48 [1]; [5]) is on record?
Answer: 260 ± 40 nM

Question: For `O=C(NC1CCNCC1)[C@@H]1CC[C@@H]2CN1C(=O)N2OS(=O)(=O)O` [relebactam], which “efficacy against OXA-48 in words” value (OXA-48 [4]) is on record?
Answer: ineffective against OXA-48

Question: Which “efficacy against OXA-48 in words” value (OXA-48 [4]) does the source give for `O=C(O)C[C@@H]1CC[C@H](NC(=O)Cc2cccs2)B(O)O1` [vaborbactam] here?
Answer: ineffective against OXA-48
